Measured values: patent US20100215618A1, “NOVEL COMPOUNDS - 644” (Arrow Therapeutics Limited, priority 2009, published 2010)
Like-named read-outs stand apart in the source and are kept apart here.

Experiments:
[1] = test system: HCV replicon cells Huh 9B (genotype 1b); assay: 1b Replicon Assay (luciferase readout); assay type: cell-based; conditions: Hepatitis C virus, Huh 9B replicon cells, 72 h, luciferase activity
[2] = test system: HCV genotype 1a replicon cells Htat2ANeo; assay: 1a Replicon Assay (cell-based anti-NS5a ELISA); conditions: Hepatitis C virus, 72 h
Outline: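 HCV 1a Htat2ANeo replicon cells (Et2AN control cells) exposed to compound for 72 h at 37° C without G418/blasticidin. NS5a quantified by cell-based ELISA (anti-NS5a, HRP/OPD, A490); IC50 from percentage reduction versus untreated control. Cytotoxicity TD50 by Cell Titre Blue fluorescence (ex 570/em 590 nm) versus DMSO controls.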

[3] = read-out: pIC50 1b Replicon (converted)
[4] = read-out: pIC50 1a Replicon (converted)

Structure (SMILES): CC(C)(C)OC(=O)N[C@@H](C(=O)N1CCC[C@H]1c1ncc(-c2ccc(-c3ccc(C(=O)Nc4ccc(CN5CCS(=O)(=O)CC5)cc4)cc3)cc2)[nH]1)c1ccccc1 [Example 2, Tert-butyl N-[(1R)-2-[(2S)-2-[5-[4-[4-[[4-[(1,1-dioxo-1,4-thiazinan-4-yl)methyl]phenyl]carbamoyl]phenyl]phenyl]-1H-imidazol-2-yl]pyrrolidin-1-yl]-2-oxo-1-phenyl-ethyl]carbamate]
- IC50 ([1]; read-out: HCV IC50 1b Replicon): 0.02 nM
- IC50 [1, 3]: 0.0204 nM
- IC50 ([2]; read-out: HCV IC50 Elisa 1a): 56 nM
- IC50 [2, 4]: 56.2 nM

Structure (SMILES): COC(=O)N[C@H](C(=O)N1CCC[C@H]1c1ncc(-c2ccc(-c3ccc(C(=O)Nc4ccc(CN5CCS(=O)(=O)CC5)cc4)cc3)cc2)[nH]1)C(C)C [Example 3, Methyl N-[(1S)-1-[(2S)-2-[5-[4-[4-[[4-[(1,1-dioxo-1,4-thiazinan-4-yl)methyl]phenyl]carbamoyl]phenyl]phenyl]-1H-imidazol-2-yl]pyrrolidine-1-carbonyl]-2-methyl-propyl]carbamate]
- IC50 ([1]; read-out: HCV IC50 1b Replicon): 0.34 nM
- IC50 [1, 3]: 0.339 nM
- IC50 ([2]; read-out: HCV IC50 Elisa 1a): 6.46 nM
- IC50 [2, 4]: 6.46 nM

Structure (SMILES): COC(=O)N[C@H](C(=O)N1CCC[C@H]1c1ncc(-c2ccc(-c3ccc(C(=O)Nc4ccc(CN5CCS(=O)(=O)CC5)cc4)cc3)cc2)[nH]1)C(C)(C)C [Example 5, Methyl N-[(1S)-1-[(2S)-2-[5-[4-[4-[[4-[(1,1-dioxo-1,4-thiazinan-4-yl)methyl]phenyl]carbamoyl]phenyl]phenyl]-1H-imidazol-2-yl]pyrrolidine-1-carbonyl]-2,2-dimethyl-propyl]carbamate]
- IC50 ([1]; read-out: HCV IC50 1b Replicon): 0.73 nM
- IC50 [1, 3]: 0.741 nM
- IC50 ([2]; read-out: HCV IC50 Elisa 1a): 33.1 nM
- IC50 [2, 4]: 33.1 nM

Structure (SMILES): COC(=O)N[C@H](C(=O)N1CCC[C@H]1c1ncc(-c2ccc(-c3ccc(C(=O)Nc4ccc(CN5CCS(=O)(=O)CC5)cc4)cc3)cc2)[nH]1)c1ccccc1 [Example 6, Methyl N-[(1S)-2-[(2S)-2-[5-[4-[4-[[4-[(1,1-dioxo-1,4-thiazinan-4-yl)methyl]phenyl]carbamoyl]phenyl]phenyl]-1H-imidazol-2-yl]pyrrolidin-1-yl]-2-oxo-1-phenyl-ethyl]carbamate]
- IC50 ([1]; read-out: HCV IC50 1b Replicon): 0.04 nM
- IC50 [1, 3]: 0.0417 nM
- IC50 ([2]; read-out: HCV IC50 Elisa 1a): 33.3 nM
- IC50 [2, 4]: 33.1 nM

Structure (SMILES): COC(=O)N[C@@H](C(=O)N1CCC[C@H]1c1ncc(-c2ccc(-c3ccc(C(=O)Nc4ccc(CN5CCS(=O)(=O)CC5)cc4)cc3)cc2)[nH]1)c1ccccc1 [Example 7, Methyl N-[(1R)-2-[(2S)-2-[5-[4-[4-[[4-[(1,1-dioxo-1,4-thiazinan-4-yl)methyl]phenyl]carbamoyl]phenyl]phenyl]-1H-imidazol-2-yl]pyrrolidin-1-yl]-2-oxo-1-phenyl-ethyl]carbamate]
- IC50 ([1]; read-out: HCV IC50 1b Replicon): 0.05 nM
- IC50 [1, 3]: 0.0468 nM
- IC50 ([2]; read-out: HCV IC50 Elisa 1a): 32 nM
- IC50 [2, 4]: 32.4 nM

Structure (SMILES): CCN(CC)[C@@H](C(=O)N1CCC[C@H]1c1ncc(-c2ccc(-c3ccc(C(=O)Nc4ccc(CN5CCS(=O)(=O)CC5)cc4)cc3)cc2)[nH]1)c1ccccc1 [Example 8, 4-[4-[2-[(2S)-1-[(2R)-2-(diethylamino)-2-phenyl-acetyl]pyrrolidin-2-yl]-1H-imidazol-5-yl]phenyl]-N-[4-[(1,1-dioxo-1,4-thiazinan-4-yl)methyl]phenyl]benzamide]
- IC50 ([1]; read-out: HCV IC50 1b Replicon): 0.05 nM
- IC50 [1, 3]: 0.0468 nM
- IC50 ([2]; read-out: HCV IC50 Elisa 1a): 4.75 nM
- IC50 [2, 4]: 4.79 nM

Structure (SMILES): CN(C)[C@@H](C(=O)N1CCC[C@H]1c1ncc(-c2ccc(-c3ccc(C(=O)Nc4ccc(CN5CCS(=O)(=O)CC5)cc4)cc3)cc2)[nH]1)c1ccccc1 [Example 9, 4-[4-[2-[(2S)-1-[(2R)-2-(dimethylamino)-2-phenyl-acetyl]pyrrolidin-2-yl]-1H-imidazol-5-yl]phenyl]-N-[4-[(1,1-dioxo-1,4-thiazinan-4-yl)methyl]phenyl]benzamide]
- IC50 ([1]; read-out: HCV IC50 1b Replicon): 0.1 nM
- IC50 [1, 3]: 0.1 nM
- IC50 ([2]; read-out: HCV IC50 Elisa 1a): 13.2 nM
- IC50 [2, 4]: 13.2 nM

Structure (SMILES): COC(=O)N[C@@H](CC(C)C)C(=O)N1CCC[C@H]1c1ncc(-c2ccc(-c3ccc(C(=O)Nc4ccc(CN5CCS(=O)(=O)CC5)cc4)cc3)cc2)[nH]1 [Example 14, Methyl N-[(1S)-1-[(2S)-2-[5-[4-[4-[[4-[(1,1-dioxo-1,4-thiazinan-4-yl)methyl]phenyl]carbamoyl]phenyl]phenyl]-1H-imidazol-2-yl]pyrrolidine-1-carbonyl]-3-methyl-butyl]carbamate]
- IC50 ([1]; read-out: HCV IC50 1b Replicon): 0.36 nM
- IC50 [1, 3]: 0.355 nM
- IC50 ([2]; read-out: HCV IC50 Elisa 1a): 15.7 nM
- IC50 [2, 4]: 15.8 nM

Structure (SMILES): CC[C@H](C)[C@H](NC(=O)OC)C(=O)N1CCC[C@H]1c1ncc(-c2ccc(-c3ccc(C(=O)Nc4ccc(CN5CCS(=O)(=O)CC5)cc4)cc3)cc2)[nH]1 [Example 16, Methyl N-[(1S,2S)-1-[(2S)-2-[5-[4-[4-[[4-[(1,1-dioxo-1,4-thiazinan-4-yl)methyl]phenyl]carbamoyl]phenyl]phenyl]-1H-imidazol-2-yl]pyrrolidine-1-carbonyl]-2-methyl-butyl]carbamate]
- IC50 ([1]; read-out: HCV IC50 1b Replicon): 0.13 nM
- IC50 [1, 3]: 0.132 nM
- IC50 ([2]; read-out: HCV IC50 Elisa 1a): 8.39 nM
- IC50 [2, 4]: 8.32 nM

Structure (SMILES): COC(=O)N[C@H](C(=O)N1CCC[C@@H]1c1ncc(-c2ccc(-c3ccc(C(=O)Nc4ccc(CN5CCS(=O)(=O)CC5)cc4)cc3)cc2)[nH]1)C(C)C [Example 20, Methyl N-[(1S)-1-[(2R)-2-[5-[4-[4-[[4-[(1,1-dioxo-1,4-thiazinan-4-yl)methyl]phenyl]carbamoyl]phenyl]phenyl]-1H-imidazol-2-yl]pyrrolidine-1-carbonyl]-2-methyl-propyl]carbamate]
- IC50 ([1]; read-out: HCV IC50 1b Replicon): 319 nM
- IC50 [1, 3]: 316 nM
- IC50 ([2]; read-out: HCV IC50 Elisa 1a): 1470 nM
- IC50 [2, 4]: 1480 nM

Structure (SMILES): CCCS(=O)(=O)N1CCN(Cc2ccc(NC(=O)c3ccc(-c4ccc(-c5cnc([C@@H]6CCCN6C(=O)[C@@H](NC(=O)OC)C(C)C)[nH]5)cc4)cc3)cc2)CC1 [Example 40, Methyl N-[(1S)-2-methyl-1-[(2S)-2-[5-[4-[4-[[4-[(4-propylsulfonylpiperazin-1-yl)methyl]phenyl]carbamoyl]phenyl]phenyl]-1H-imidazol-2-yl]pyrrolidine-1-carbonyl]propyl]carbamate]
- IC50 ([1]; read-out: HCV IC50 1b Replicon): 0.1 nM
- IC50 [1, 3]: 0.1 nM
- IC50 ([2]; read-out: HCV IC50 Elisa 1a): 42.6 nM
- IC50 [2, 4]: 42.7 nM

Structure (SMILES): COC(=O)N[C@H](C(=O)N1CCOC[C@H]1c1ncc(-c2ccc(-c3ccc(C(=O)Nc4ccc(CN5CCS(=O)(=O)CC5)cc4)cc3)cc2)[nH]1)c1ccccc1 [Example 47, Methyl N-[(1S)-2-[(3R)-3-[5-[4-[4-[[4-[(1,1-dioxo-1,4-thiazinan-4-yl)methyl]phenyl]carbamoyl]phenyl]phenyl]-1H-imidazol-2-yl]morpholin-4-yl]-2-oxo-1-phenyl-ethyl]carbamate]
- IC50 ([1]; read-out: HCV IC50 1b Replicon): 0.28 nM
- IC50 [1, 3]: 0.275 nM
- IC50 ([2]; read-out: HCV IC50 Elisa 1a): 73.3 nM
- IC50 [2, 4]: 74.1 nM

Structure (SMILES): COC(=O)N[C@H](C(=O)N1CCC[C@H]1c1ncc(-c2ccc(-c3ccc(C(=O)Nc4ccc(CN5CCS(=O)(=O)CC5)cc4)cc3)c(C)c2)[nH]1)C(C)C [Example 54, Methyl N-[(1S)-1-[(2S)-2-[5-[4-[4-[[4-[(1,1-dioxo-1,4-thiazinan-4-yl)methyl]phenyl]carbamoyl]phenyl]-3-methyl-phenyl]-1H-imidazol-2-yl]pyrrolidine-1-carbonyl]-2-methyl-propyl]carbamate]
- IC50 ([1]; read-out: HCV IC50 1b Replicon): 0.21 nM
- IC50 [1, 3]: 0.209 nM
- IC50 ([2]; read-out: HCV IC50 Elisa 1a): 9.38 nM
- IC50 [2, 4]: 9.33 nM
